Patent US11136597B2, “Compositions for enhancing targeted gene editing and methods of use thereof” (Yale University, priority 2016, dated 2021)

Key:
[1] = system: skin fibroblasts from β-globin/GFP mice, IVS2-654 (C→T) mutation; assay: GFP/beta globin gene correction assay in mouse skin fibroblasts with DNA repair or other small molecule inhibitors; assay type: cell-based; conditions: inhibitor given 48 hours before tcPNA1 + donor DNA nanoparticles, flow cytometry 72 hours later
Protocol: Skin fibroblasts were isolated from the β-globin/GFP mice (intron 2 of human β-globin inserted with in the GFP coding regions) and grown in culture in DMEM medium plus 10% FCS. The intron contains the IVS2-654 (C→T) mutation. The gene correction assay is illustrated in FIG. 5A.
The fibroblasts were treated ex vivo with nanoparticles containing tcPNA1+ Donor DNA and 72 hours later flow cytometry analysis was performed to quantify the % gene correction based on the frequency of GFP positive cells. In some cases, DNA repair inhibitors or other small molecule inhibitors were given 48 hours before the nanoparticle treatment.

[2] = system: homology-dependent repair (HDR); assay: Luciferase reporter gene assay for homology-dependent repair (HDR) in CD117+ cells; assay type: cell-based, mouse; conditions: CD117+ cells
Protocol: An inactivating I-Sce1 site was cloned 56 amino acids into the firefly luciferase open reading frame under the control of a CMV promoter. The reporter construct also contains a promoterless luciferase gene used as a template for homologous recombination. A double-strand break in the luciferase reporter is created by in vitro digestion with the I-Sce I restriction enzyme (NEB #R0694L). Plasmid DNA was digested with I-Sce 1 for 1 hour at 37° C. at a ratio of 10 units enzyme to 1 μg DNA and then the enzyme was inactivated at 65° C. for 20 minutes. The linearization of the plasmid was confirmed for each digestion via gel electrophoresis and the linear plasmid was purified using the Qiagen Qiaquick spin columns. After separation CD117+ and CD117-cells from bone marrow of β-globin/GFP transgenic mice, cells were transfected using the Lonza 2b Nucleofector Device. 5×10^5 cells were transfected with 1 μg of either the luciferase reporter vector or a positive control firefly luciferase expression vector, along with 50 ng of a renilla luciferase expression plasmid as a transfection efficiency control. All transfections were performed in triplicate. After transfection the cells were plated at a density of 5×10^5 cells/ml in 12-well plates. After 24 hours incubation post transfection, luciferase activity was measured using the Promega Dual Luciferase Assay Kit. In each sample firefly luciferase activity was normalized to the renilla luciferase transfection control. Reporter reactivation was calculated as a ratio of normalized firefly luciferase activity in the cells transfected with the reporter plasmid to the positive control.
To test whether the above increases in DNA repair gene expression could be correlated with functional differences in DNA repair, a luciferase-based assay was used to quantify repair of DNA double-strand breaks (DSBs) by HDR. In this assay, repair of a DSB in a reporter plasmid via intramolecular homologous recombination creates (“reactivates”) a functional luciferase gene (FIG. 2H), and so the assay provides a measure of HDR capacity (FIG. 2J).

[3] = system: CD117+ cells from β-globin/GFP transgenic mice; assay: Ex vivo gene editing in pre-sorted CD117+ cells with or without SCF or c-Kit pathway kinase inhibitors; assay type: cell-based, mouse; conditions: for gene editing frequency in pre-sorted CD117+ cells in presence of kinase inhibitor: γtcPNA4/donor DNA NPs plus inhibitor: dasatinib 200 nM, MEK162 1.0 μM, BKM120 3.0 μM
Protocol: For CD117+ cell experiments, Iscove's Modified Dulbecco's Media (IMDM) media containing insulin (10 ng/ml), FCS (10%) and erythropoietin (1 U/ml) was used to culture CD117+ cells after isolation using magnetic separation. Where indicated, 3 μg/ml of SCF (Recombinant murine SCF, catalog #250-03, PeproTech, Rocky Hill, N.J.;) was added prior to nanoparticle treatment. 2 mg/ml of NPs were used to treat 50,000-100,000 CD117+ cells in triplicate for 48 hrs in the above media, followed by flow cytometry analyses as above. Inhibitors were used at concentrations of 200 nM (dasatinib), 1.0 μM (MEK162) and 3.0 μM (BKM120). Dasatanib was obtained from Cayman Chemical (Ann Arbor, Mich.; item #11498) and dissolved according to manufacturer's protocol. MEK162 and BKM120 were obtained from Dr. Harriet Kluger, Yale University.
(§1) BD Bioscience kit catalog #558451 (BDImag™ Hematopoietic Progenitor Stem Cell Enrichment Set—DM) was used to isolate CD117 cells. Enrichment for CD117 was confirmed by flow cytometry. CD117+ enriched cells were labeled with CD117-APC (BD Pharmingen™ catalog #558451) antibody. Cells were co-labelled with control IgG antibody (BD Pharmingen™ catalog #555746) for gating purposes. To quantify GFP expression, after CD117 co-labelling, flow cytometry was performed using FACScaliburS by resuspending cells in PBS/1% FBS where green fluorescent cells are measured in the Fl1 channel and APC stained cells are in the Fl4 channel Antibodies for other markers were Ter119 (BD Pharmingen™ catalog #561033) and CD45 APC (BD Pharmingen™ catalog #561018).
To explore the mechanism of the increased gene editing in CD117+ cells, the requirement of c-Kit-dependent signaling for elevated gene correction or whether CD117 simply serves as a marker for the increased susceptibility to gene editing was distinguished. To do this, γtcPNA4/donor DNA NP-mediated gene editing was assayed in pre-sorted CD117+ cells in the presence or absence of selected kinase inhibitors (FIG. 2D). Dasatinib, which inhibits the c-Kit kinase in addition to the BCR/Abl and Src kinases, reduced the gene editing from 7% to 2.0%.

[4] = system: 120 bp double-stranded DNA fragments containing β-globin sequences; assay: Gel mobility shift assay of SCD tcPNAs; assay type: binding, human; conditions: physiological conditions
Excerpt: Each 120 bp dsDNA contained the binding site for the respective tcPNAs.

[5] = system: IVS2-654 (C→T) mutation within the β-globin/GFP fusion gene; assay: Ex vivo gene correction (% GFP+ cells, flow cytometry) in bone marrow cells from β-globin/GFP transgenic mice; assay type: cell-based, mouse; conditions: total bone marrow cells, 2 mg/ml PLGA NPs with donor DNA, 48 hr
Excerpt: To assay for gene editing in a robust and quantitative manner, a transgenic mouse model was utilized with a β-globin/GFP fusion transgene of human β-globin intron 2 carrying a thalassemia-associated IVS2-654 (C→T) mutation embedded within the GFP coding sequence, resulting in incorrect splicing of β-globin/GFP mRNA and lack of GFP expression (Sazani, et al., Nat. Biotechnol., 20:1228-1233 (2002)). PNA-mediated triplex-formation induces DNA repair and recombination of the genomic site with a 60-nucleotide sense donor DNA that is homologous to a portion of the β-globin intron 2 sequence except for providing a wild-type nucleotide at the IVS2-654 position. Via recombination, the splice-site mutation is corrected and expression of functional GFP occurs (FIG. 1A) (McNeer, et al., Gene Therapy, 20:658-669 (2013); Bahal, et al., Curr. Gene Ther., 14:331-342 (2014)). […]
as §1, with “Enrichment for CD117 was confirmed by flow cytometry. CD117+ enriched cells were labeled with CD117-APC (BD Pharmingen™ catalog #558451) antibody. Cells were co-labelled with control IgG antibody (BD Pharmingen™ catalog #555746) for gating purposes.” left out

[6] = system: 120-bp DNA duplexes containing the respective target sequences (β-globin intron 2); assay: DNA binding gel shift assay of tcPNAs; parameters: species or system human; conditions: 120-bp dsDNA, 37 C, 10 mM NaPi pH 7.4
Protocol: For gel electrophoresis, synthetic 120 bp dsDNA targets were incubated with indicated oligomers at 37 C in low ionic strength buffer (10 mM NaPi, pH 7.4). The samples were separated on 10% non-denaturing polyacrylamide gels in 1×TBE buffer. The gels were run at […] for 1.5 hr. After electrophoresis, the gels were stained with 1×SYBR-Gold (catalog #S11494, Invitrogen) for 10 min, washed 2× with 1×TBE buffer, and then imaged using a gel documentation system (BioDoc-It System). The images were then inverted using Adobe Photoshop 6.0.

O=C(c1cc(Cc2n[nH]c(=O)c3ccccc23)ccc1F)N1CCN(C(=O)C2CC2)CC1 [AZD-2281]
effect on gene editing (% gene correction, GFP positive cells) [1]: boosts gene editing

Nc1cc(C(F)(F)F)c(-c2cc(N3CCOCC3)nc(N3CCOCC3)n2)cn1 [BKM120, reference compound]
HDR repair activity (luciferase reactivation) in CD117+ cells [2]: diminished | gene editing frequency in pre-sorted CD117+ cells in presence of kinase inhibitor [3]: 4.1%

Cc1nc(Nc2ncc(C(=O)Nc3c(C)cccc3Cl)s2)cc(N2CCN(CCO)CC2)n1 [Dasatinib]
fold reduction of gene editing frequency ([3]; CD117+ cells, inhibition of c-Kit kinase): ~4 fold | gene editing frequency in pre-sorted CD117+ cells in presence of kinase inhibitor [3]: 2.0%

Cn1cnc2c(F)c(Nc3ccc(Br)cc3F)c(C(=O)NOCCO)cc21 [MEK162, reference compound]
HDR repair activity (luciferase reactivation) in CD117+ cells [2]: diminished | gene editing frequency in pre-sorted CD117+ cells in presence of kinase inhibitor [3]: 2.6%

CC(C)c1cc(-c2n[nH]c(=O)n2-c2ccc3c(ccn3C)c2)c(O)cc1O [STA-9090/Ganetespib]
effect on gene editing (% gene correction, GFP positive cells) [1]: enhances gene editing

C[C@@]1(CO)[C@H](O)CC[C@@]2(C)[C@H]1CC[C@H]1C[C@@H]3C[C@@]12CC[C@]3(O)CO [aphidicolin]
effect on gene editing (% gene correction, GFP positive cells) [1]: boosts gene editing

H-KKK-JJTJTTJ-OOO-CTTCTCCACAGGAGTCAG-KKK-NH2 (NNTNTTNCTTCTCCACAGGAGTCAG; listed as DNA, chemistry not fully specified) [SCD-tcPNA 1]
binding to 120 bp double-stranded DNA fragments (gel mobility shift) [4]: binding

H-KKK-JTTTJTTTJTJT-OOO-TCTCTTTCTTTCAGGGCA-KKK-NH2 (NTTTNTTTNTNTTCTCTTTCTTTCAGGGCA; miniPEG γ units, lysine caps, amide, chemistry not fully specified) [γtcPNA4]
genome modification frequency (% GFP+ cells) [5]: 1.62%

H-KKK-TJTJTTJT-OOO-TCTTCTCTGTCTCCACAT-KKK-NH2 (TNTNTTNTTCTTCTCTGTCTCCACAT; listed as DNA, chemistry not fully specified) [SCD-tcPNA 3]
binding to 120 bp double-stranded DNA fragments (gel mobility shift) [4]: binding

H-KKK-TTJJTJT-OOO-TCTCCTTAAACCTGTCTT-KKK-NH2 (TTNNTNTTCTCCTTAAACCTGTCTT; listed as DNA, chemistry not fully specified) [SCD-tcPNA 2]
binding to 120 bp double-stranded DNA fragments (gel mobility shift) [4]: binding

H-KKK-TTJTTTJTTJTJ-OOO-CTCTTCTTTCTTGACAGG-KKK-NH2 (TTNTTTNTTNTNCTCTTCTTTCTTGACAGG; lysine caps, linker, C-terminal amide, chemistry not fully specified) [γtcPNA4-Scr, scrambled version of γtcPNA4 with the same base composition]
genome modification frequency (% GFP+ cells) [5]: no modification | binding to target site in duplex DNA (gel shift) [6]: No binding
